Target: T1, human Histamine H3 receptor (hH3R) (Homo sapiens, UniProt Q9Y5N1)
T1 construct: expressed in transfected cells; host or cells: CHO (Chinese Hamster Ovary) cells; membranes
Test: GTPγS binding assay, antagonist activity in membranes of CHO cells expressing hH3R
Type: biochemical
Conditions: membranes from CHO cells transfected with hH3R; (R)-α-methyl histamine 30 nM; [35S]GTPγS 0.2 nM
From the text: At least one compound of at least one formula described herein including the compounds described in the Examples hereof, when tested in at least one in vitro assay as substantially described below is active towards H3 receptors. Particularly, at least one compound described herein is an effective H3 receptor ligand. The in vitro activity may be related to in vivo activity but may not be linearly correlated with binding affinity. In the in vitro assay, a compound can be tested for its activity toward H3 receptors and IC50 obtained to determine the activity for a particular compound toward the H3 receptor.
Guanosine 5′-O-(3-[^35S]thio)triphosphate [GTPγS] Binding Assay
A GTPγS binding assay can be used to investigate antagonist properties of compounds in CHO cells (Chinese Hamster Ovary) transfected with human Histamine H3 receptor (hH3R). Membranes from CHO cells expressing hH3R (10 μg/well) are diluted in GTPγS assay buffer (20 mM Hepes, 10 mM MgCl2, 100 mM NaCl, pH 7.4) and preincubated with saponine (3 μg/ml), GDP (10 μM) and PVT-WGA SPA beads (125 μg/well) (Amersham) for 30 minutes. To determine antagonist activity, (R)-α-methyl histamine (30 nM) is added in 96 well SPA plate with [^35S]GTPγS (0.2 nM) and various concentration of H3R antagonists. The GTPγS binding assay is started with addition of the mixture membrane/saponine/GDP and incubated for 90 minutes at room temperature. The amount of bound [^35S]GTPγS is determined by using the MicroBeta Trilux counter (PerkinElmer). The percentage of [^35S]GTPγS bound in each sample is calculated as a percentage of that bound control sample incubated in absence of H3 antagonist. Duplicate determinations are obtained for each concentration, and the data are analyzed using ExcelFit4 to obtain the IC50.
Set forth in Table 1 hereinbelow for the Example 1-34 compounds are IC50 values that were generated in accordance with the GTPγS Binding Assay as essentially described hereinabove.

T1 sequence (Q9Y5N1 whole entry): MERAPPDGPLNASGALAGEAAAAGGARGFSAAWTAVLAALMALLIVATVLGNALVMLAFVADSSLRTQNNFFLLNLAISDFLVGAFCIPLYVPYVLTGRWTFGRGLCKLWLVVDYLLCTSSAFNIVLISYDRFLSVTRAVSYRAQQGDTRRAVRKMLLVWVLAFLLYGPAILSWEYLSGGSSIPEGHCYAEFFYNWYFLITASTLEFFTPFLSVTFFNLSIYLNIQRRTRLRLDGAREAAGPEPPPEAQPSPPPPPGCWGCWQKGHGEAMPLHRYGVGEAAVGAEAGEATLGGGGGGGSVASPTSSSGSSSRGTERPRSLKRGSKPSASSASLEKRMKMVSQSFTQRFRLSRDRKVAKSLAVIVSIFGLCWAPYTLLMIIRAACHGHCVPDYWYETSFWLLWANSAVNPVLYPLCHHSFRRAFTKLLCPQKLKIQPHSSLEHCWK

Compound	IC50 [µM]
CC1(C)CN(C(=O)[C@H]2C[C@@H]2c2ccc(C(N)=O)cc2)CCN1C1CCC1 (racemic) [Example 24, 4-(trans-2-(4-cyclobutyl-3,3-dimethylpiperazine-1-carbonyl)cyclopropyl)benzamide, enantiomeric mixture]	0.0159
4-((trans)-2-((S)-4-cyclobutyl-2-methylpiperazine-1-carbonyl)cyclopropyl)benzamide, isomer 2 [Example 12]	1.32
4-(trans-2-(4-cyclobutyl-3,3-dimethylpiperazine-1-carbonyl)cyclopropyl)benzamide, enantiomer 2 [Example 26]	> 1.11
C[C@H]1CN(C(=O)[C@H]2C[C@@H]2c2ccc(C(N)=O)cc2)CCN1C1CCC1 (mixture of isomers) [Example 17, 4-(trans-2-((S)-4-cyclobutyl-3-methylpiperazine-1-carbonyl)cyclopropyl)benzamide, diastereomeric mixture]	0.0142
4-((trans)-2-((S)-4-cyclobutyl-3-methylpiperazine-1-carbonyl)cyclopropyl)benzamide, isomer 2 [Example 19]	1.27
4-(trans-2-((S)-4-isopropyl-2-methylpiperazine-1-carbonyl)cyclopropyl)benzamide, isomer 2 [Example 6]	> 1.11
4-(trans-2-((R)-4-isopropyl-2-methylpiperazine-1-carbonyl)cyclopropyl)benzamide, isomer 2 [Example 3]	0.327
4-((trans)-2-((R)-4-cyclobutyl-3-methylpiperazine-1-carbonyl)cyclopropyl)benzamide, isomer 2 [Example 22]	1.01
4-(trans-2-((R)-4-cyclobutyl-2-ethylpiperazine-1-carbonyl)cyclopropyl)benzamide, isomer 1 [Example 14]	0.0153
C[C@H]1CN(C2CCC2)CCN1C(=O)[C@H]1C[C@@H]1c1cccc(C(N)=O)c1 (mixture of isomers) [Example 30, 3-(trans-2-((S)-4-cyclobutyl-2-methylpiperazine-1-carbonyl)cyclopropyl)benzamide, diastereomeric mixture]	0.0163
3-((trans)-2-((R)-4-cyclobutyl-2-methylpiperazine-1-carbonyl)cyclopropyl)benzamide, isomer 2 [Example 29]	0.576
3-((trans)-2-((S)-4-cyclobutyl-2-methylpiperazine-1-carbonyl)cyclopropyl)benzamide, isomer 2 [Example 32]	> 1.11
CC[C@@H]1CN(C2CCC2)CCN1C(=O)[C@H]1C[C@@H]1c1ccc(C(N)=O)cc1 (mixture of isomers) [Example 13, 4-(trans-2-((R)-4-cyclobutyl-2-ethylpiperazine-1-carbonyl)cyclopropyl)benzamide, diastereomeric mixture]	0.0291
4-(trans-2-((R)-4-cyclobutyl-2-ethylpiperazine-1-carbonyl)cyclopropyl)benzamide, isomer 2 [Example 15]	0.14
CC[C@H]1CN(C2CCC2)CCN1C(=O)[C@H]1C[C@@H]1c1ccc(C(N)=O)cc1 (mixture of isomers) [Example 16, 4-(trans-2-((S)-4-cyclobutyl-2-ethylpiperazine-1-carbonyl)cyclopropyl)benzamide, diastereomeric mixture]	> 1.11
C[C@@H]1CN(C(=O)[C@H]2C[C@@H]2c2cccc(C(N)=O)c2)CCN1C1CCC1 (mixture of isomers) [Example 34, 3-(trans-2-((R)-4-cyclobutyl-3-methylpiperazine-1-carbonyl)cyclopropyl)benzamide, diastereomeric mixture]	0.0518
CC1(C)CN(C2CCC2)CCN1C(=O)[C@H]1C[C@@H]1c1ccc(C(N)=O)cc1 (racemic) [Example 23, 4-(trans-2-(4-cyclobutyl-2,2-dimethylpiperazine-1-carbonyl)cyclopropyl)benzamide, enantiomeric mixture]	> 1.11
4-((trans)-2-((R)-4-cyclobutyl-2-methylpiperazine-1-carbonyl)cyclopropyl)benzamide, isomer 2 [Example 9]	0.121
C[C@H]1CN(C(=O)[C@H]2C[C@@H]2c2cccc(C(N)=O)c2)CCN1C1CCC1 (mixture of isomers) [Example 33, 3-(trans-2-((S)-4-cyclobutyl-3-methylpiperazine-1-carbonyl)cyclopropyl)benzamide, diastereomeric mixture]	0.041

These reach a lower IC50. Values come first.

IC50 [µM]	Compound
0.012	C[C@@H]1CN(C2CCC2)CCN1C(=O)[C@H]1C[C@@H]1c1cccc(C(N)=O)c1 (mixture of isomers) [Example 27, 3-(trans-2-((R)-4-cyclobutyl-2-methylpiperazine-1-carbonyl)cyclopropyl)benzamide, diastereomeric mixture]
0.00874	C[C@@H]1CN(C(=O)[C@H]2C[C@@H]2c2ccc(C(N)=O)cc2)CCN1C1CCC1 (mixture of isomers) [Example 20, 4-(trans-2-((R)-4-cyclobutyl-3-methylpiperazine-1-carbonyl)cyclopropyl)benzamide, diastereomeric mixture]
0.00598	4-((trans)-2-((S)-4-cyclobutyl-3-methylpiperazine-1-carbonyl)cyclopropyl)benzamide, isomer 1 [Example 18]
0.00696	3-((trans)-2-((S)-4-cyclobutyl-2-methylpiperazine-1-carbonyl)cyclopropyl)benzamide, isomer 1 [Example 31]
0.00683	4-((trans)-2-((R)-4-cyclobutyl-3-methylpiperazine-1-carbonyl)cyclopropyl)benzamide, isomer 1 [Example 21]
0.00494	C[C@@H]1CN(C2CCC2)CCN1C(=O)[C@H]1C[C@@H]1c1ccc(C(N)=O)cc1 [Example 8, 4-((trans)-2-((R)-4-cyclobutyl-2-methylpiperazine-1-carbonyl)cyclopropyl)benzamide, isomer 1]
0.00882	C[C@@H]1CN(C2CCC2)CCN1C(=O)[C@H]1C[C@@H]1c1ccc(C(N)=O)cc1 (mixture of isomers) [Example 7, 4-(trans-2-((R)-4-cyclobutyl-2-methylpiperazine-1-carbonyl)cyclopropyl)benzamide, diastereomeric mixture]
0.0135	CC(C)N1CCN(C(=O)[C@H]2C[C@@H]2c2ccc(C(N)=O)cc2)[C@@H](C)C1 (mixture of isomers) [Example 4, 4-(trans-2-((S)-4-isopropyl-2-methylpiperazine-1-carbonyl)cyclopropyl)benzamide, diastereomeric mixture]
0.00806	C[C@H]1CN(C2CCC2)CCN1C(=O)[C@H]1C[C@@H]1c1ccc(C(N)=O)cc1 (mixture of isomers) [Example 10, 4-(trans-2-((S)-4-cyclobutyl-2-methylpiperazine-1-carbonyl)cyclopropyl)benzamide, diastereomeric mixture]
0.00566	4-(trans-2-((R)-4-isopropyl-2-methylpiperazine-1-carbonyl)cyclopropyl)benzamide, isomer 1 [Example 2]
0.00748	CC(C)N1CCN(C(=O)[C@H]2C[C@@H]2c2ccc(C(N)=O)cc2)[C@H](C)C1 (mixture of isomers) [Example 1, 4-(trans-2-((R)-4-isopropyl-2-methylpiperazine-1-carbonyl)cyclopropyl)benzamide, diastereomeric Mixture]
0.00528	3-((trans)-2-((R)-4-cyclobutyl-2-methylpiperazine-1-carbonyl)cyclopropyl)benzamide, isomer 1 [Example 28]
0.00854	4-(trans-2-((S)-4-isopropyl-2-methylpiperazine-1-carbonyl)cyclopropyl)benzamide, isomer 1 [Example 5]
0.00577	4-((trans)-2-((S)-4-cyclobutyl-2-methylpiperazine-1-carbonyl)cyclopropyl)benzamide, isomer 1 [Example 11]
0.012	4-(trans-2-(4-cyclobutyl-3,3-dimethylpiperazine-1-carbonyl)cyclopropyl)benzamide, enantiomer 1 [Example 25]
